What was measured:
FLT3 D835Y = target: T1, FLT3 D835Y (Homo sapiens, UniProt P36888, D835Y); experiment: DiscoverX KINOMEscan competition binding, FLT3 D835Y; settings: no ATP
T1 construct: purchased DiscoverX (KINOMEscan); host or cells: E. coli (T7 phage) or HEK-293
T1 sequence (P36888 27-993 D835Y): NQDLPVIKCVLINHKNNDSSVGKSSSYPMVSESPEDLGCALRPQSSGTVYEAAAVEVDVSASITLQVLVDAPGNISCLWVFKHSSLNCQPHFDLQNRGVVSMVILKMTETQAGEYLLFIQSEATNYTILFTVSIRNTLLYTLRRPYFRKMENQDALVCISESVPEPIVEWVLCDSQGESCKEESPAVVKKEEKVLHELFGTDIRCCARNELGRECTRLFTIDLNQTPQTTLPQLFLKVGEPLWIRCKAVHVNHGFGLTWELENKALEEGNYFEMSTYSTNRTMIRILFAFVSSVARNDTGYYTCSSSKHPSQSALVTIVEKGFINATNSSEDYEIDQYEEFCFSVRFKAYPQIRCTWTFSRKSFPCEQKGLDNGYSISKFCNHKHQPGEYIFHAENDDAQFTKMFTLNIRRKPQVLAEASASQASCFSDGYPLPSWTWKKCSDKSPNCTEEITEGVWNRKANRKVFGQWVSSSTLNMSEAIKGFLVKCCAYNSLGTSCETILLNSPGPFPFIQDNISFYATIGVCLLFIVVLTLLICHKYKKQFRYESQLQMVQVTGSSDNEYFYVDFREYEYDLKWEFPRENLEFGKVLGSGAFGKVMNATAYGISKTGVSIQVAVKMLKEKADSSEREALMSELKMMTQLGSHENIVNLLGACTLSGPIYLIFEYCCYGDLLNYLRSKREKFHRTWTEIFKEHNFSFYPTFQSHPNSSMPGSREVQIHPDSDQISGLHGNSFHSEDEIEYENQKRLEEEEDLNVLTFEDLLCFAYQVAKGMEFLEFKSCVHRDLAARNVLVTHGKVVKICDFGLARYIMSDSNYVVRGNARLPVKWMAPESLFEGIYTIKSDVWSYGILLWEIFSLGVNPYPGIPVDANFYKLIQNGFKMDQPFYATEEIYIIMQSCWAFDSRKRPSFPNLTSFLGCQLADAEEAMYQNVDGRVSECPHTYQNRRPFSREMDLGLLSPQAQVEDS
Source text: (§1) Kinase binding data were obtained for various exemplary compounds prepared according to Examples 2-15 using the DiscoverX KINOMEscan® active site-directed competition binding site-directed assay protocol described below. […] As a result, the data report thermodynamic interaction affinities (Kd values), rather than IC50 values that are dependent on ATP concentrations. The assay uses a DNA-tagged version of the protein kinase, and an immobilized ligand bound to a solid support. Compounds that directly or indirectly prevent kinase binding to the immobilized ligand reduce the amount of kinase captured on the solid support, which is detected using an ultra-sensitive qPCR method. Affinity constants reported from the assay have been reported to be independent of the immobilized ligand used that is coupled to the solid support (See supplemental information in Fabian, M. A. et. al., (2005) Nat. […] Wodicka, L. […] Biol. 17, 1241-1249.) Kinase-tagged T7 phage strains were prepared in an E. coli host derived from the BL21 strain. E. coli were grown to log-phase and infected with T7 phage and incubated with shaking at 32° C. until lysis. […] Kds were determined using an 11-point 3-fold compound dilution series with three DMSO control points. […] The kinase concentration in the eluates was measured by qPCR. Binding constants (Kds) were calculated with a standard dose-response curve using the Hill equation. […]

FLT3 Autoinh. = target: T2, FLT3 Autoinh. (Homo sapiens, UniProt P36888); experiment: DiscoverX KINOMEscan competition binding, FLT3 Autoinh.; settings: no ATP
T2 construct: purchased DiscoverX (KINOMEscan); host or cells: E. coli (T7 phage) or HEK-293
T2 sequence (P36888 564-993 limits assumed): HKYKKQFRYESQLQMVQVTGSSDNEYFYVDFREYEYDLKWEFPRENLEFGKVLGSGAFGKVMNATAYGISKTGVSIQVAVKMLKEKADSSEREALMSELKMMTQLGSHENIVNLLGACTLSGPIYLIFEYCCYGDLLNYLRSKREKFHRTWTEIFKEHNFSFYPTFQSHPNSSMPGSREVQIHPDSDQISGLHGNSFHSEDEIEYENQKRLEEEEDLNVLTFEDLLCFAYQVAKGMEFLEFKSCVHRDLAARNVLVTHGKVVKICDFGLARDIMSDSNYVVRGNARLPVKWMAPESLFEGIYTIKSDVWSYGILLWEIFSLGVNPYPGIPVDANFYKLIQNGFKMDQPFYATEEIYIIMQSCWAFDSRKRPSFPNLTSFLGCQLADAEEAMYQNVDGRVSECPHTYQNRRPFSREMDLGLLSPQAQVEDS
Source text: as §1

Structure (SMILES): COc1cc2ncc(-c3nc(N[C@H]4CNCC[C@@H]4F)c(F)cc3F)n2nc1C1CCC1 [Compound 15a, 6-(6-cyclobutyl-7-methoxyimidazo[1,2-b]pyridazin-3-yl)-3,5-difluoro-N-((3S,4S)-4-fluoropiperidin-3-yl)pyridin-2-amine]
- Kd (FLT3 D835Y): < 0.17 nM
- Kd (FLT3 Autoinh.): 5.8 nM
